Assays:
[1] = Nursing and patient assessment surveys after induction of general anesthesia with propofol or ketofol (randomized, double-blinded controlled trial)
Description: 85 patients of ASA Class 1-2 scheduled for surgical procedures that involved general anesthesia were assigned to one of two arms, one involving induction with propofol and the other involving induction with “ketofol” (a ketamine/propofol combination) in a randomized, double-blinded controlled trial. Patients were placed on standard ASA monitors including a BIS monitor and a noninvasive cardiac output monitor (NICOM) prior to induction of general anesthesia.
One minute before induction, baseline hemodynamics were recorded with standard ASA monitors as well as with the NICOM. Providers were given one 20 ml syringe and one 10 ml syringe for rescue if needed. As part of the induction, fentanyl (1-2 mcg/kg) and any relaxant excluding succinylcholine and pancuronium was given. The 20 ml syringe in both groups looked identical, appeared to be propofol but depending on the group they were randomized to, it represented either 2 mg/kg of propofol (propofol group) or 0.75 mg/kg of ketamine and 1.5 mg/kg of propofol (“ketofol” group). The 10 ml rescue syringe, if used, represented 1 mg/kg of propofol (propofol group) or 0.25 mg/kg of ketamine and 0.5 mg/kg of propofol (“ketofol” group). Hemodynamics were recorded every minute for a total of 30 minutes post-induction. During this time, anesthesia was maintained with any volatile agent excluding nitrous oxide. […] Patients were given survey questions that centered on emergence, discharge times, pain control, and nausea/vomiting. In addition, nurses were also asked to fill out a survey which dealt with similar questions.

[2] = Ketofol vs etomidate for emergent endotracheal intubation in critically ill patients (randomized clinical trial); format: in vivo, human; details: share of group
[3] = Likert scaled responses from 0 (strongly disagree) to 7 (strongly agree)
[4] = Likert scaled responses from 0 (very poorly) to 7 (perfectly)

SMILES | Patient Assessment: Emergence (woke up well), Mean [1, 3] | Patient Assessment: No PONV, Mean [1, 3] | Patient Assessment: No Pain, Mean [1, 3] | Nursing Assessment: Discharge (from unit), Mean [1, 4] | Nursing Assessment: Emergence (wake up), Mean [1, 4] | Nursing Assessment: Protection from PONV, Mean ([1]; Likert scaled responses from 0 (very poorly) to 7 (perfectly), PONV = post-operative nausea/vomiting) | Serious adverse events reported [2] [%]
CC(C)c1cccc(C(C)C)c1O [Propofol, 2,6-diisopropylphenol] | 5.5 | 5.5 | 3.8 | 5.1 | 5.4 | 5.5 | –
CCOC(=O)c1cncn1[C@H](C)c1ccccc1 [etomidate] | – | – | – | – | – | – | 5
